Assay results: the NIST ThermoML archive (doi:10.1021/je900596d)

Conditions: 357.01 K, Liquid, Vibrating tube method

FC(F)=C(F)C(F)(F)F [hexafluoropropene]
Conditions | mass density [kg/m3]
3815.9 kPa | 942.63
3841.4 kPa | 944.76
3866.1 kPa | 946.85
3891.2 kPa | 948.86
3916.1 kPa | 950.85
3941.3 kPa | 952.87
3966.7 kPa | 954.74
3992.1 kPa | 956.67
4032.7 kPa | 959.68
4052.9 kPa | 961.12
4073.2 kPa | 962.41
4094 kPa | 963.87
4114.8 kPa | 965.29
4135 kPa | 966.6
4155.1 kPa | 967.92
4175.4 kPa | 969.27
4195.5 kPa | 970.62
4215.6 kPa | 971.88
4258.3 kPa | 974.59
4279.4 kPa | 975.81
4299.6 kPa | 977.03
4320.4 kPa | 978.34
4340.8 kPa | 979.7
4361.8 kPa | 980.83
4383.2 kPa | 982.1
4404.3 kPa | 983.28
4445.8 kPa | 985.59
4467.1 kPa | 986.71
4488.7 kPa | 987.99
4929.3 kPa | 1009.65
4970.6 kPa | 1011.35
5012.8 kPa | 1013.28
5053.2 kPa | 1015.04
5094.4 kPa | 1016.71
5178.4 kPa | 1020.12
5218.9 kPa | 1021.7
5262 kPa | 1023.52
5302.8 kPa | 1025.13
5344.2 kPa | 1026.56
5426.4 kPa | 1029.68
5468.6 kPa | 1031.33
5509.4 kPa | 1032.71
5595.1 kPa | 1035.91
5636.8 kPa | 1037.33
5678.3 kPa | 1038.78
5720.2 kPa | 1040.29
5761.9 kPa | 1041.7
5802.7 kPa | 1043
5844 kPa | 1044.41
5885.2 kPa | 1045.79
5926.3 kPa | 1047.08
5966.4 kPa | 1048.43
6079.9 kPa | 1052.05
6121.3 kPa | 1053.27
6161.6 kPa | 1054.49
6202.1 kPa | 1055.73
6242.6 kPa | 1057.02
6283 kPa | 1058.17
6323.7 kPa | 1059.35
6365.4 kPa | 1060.53
6405.9 kPa | 1061.73
6446.1 kPa | 1062.93
6487.1 kPa | 1063.92
6527.7 kPa | 1065.18
6568.3 kPa | 1066.33
6649.5 kPa | 1068.55
6689.8 kPa | 1069.61
6730.6 kPa | 1070.82
6771.8 kPa | 1071.89
6812.8 kPa | 1072.89
6854 kPa | 1074.05
6894.2 kPa | 1075.07
6976.2 kPa | 1077.12
7016.9 kPa | 1078.17
7059.1 kPa | 1079.19
7099.3 kPa | 1080.34
7141 kPa | 1081.32
7182 kPa | 1082.35
7223.7 kPa | 1083.32
7265.2 kPa | 1084.37
7306.5 kPa | 1085.33
7391.5 kPa | 1087.34
7432.1 kPa | 1088.27
7472.8 kPa | 1089.26
7514.5 kPa | 1090.2
7555.9 kPa | 1091.18
7596.5 kPa | 1092.11
7637.6 kPa | 1093.07
7760.7 kPa | 1095.83
7802.6 kPa | 1096.76
7843.1 kPa | 1097.59
7885.2 kPa | 1098.49
7925.7 kPa | 1099.42
7967.5 kPa | 1100.24
8050.7 kPa | 1102.02
8094 kPa | 1102.97
8134 kPa | 1103.77
8175.6 kPa | 1104.71
8217.3 kPa | 1105.6
8258 kPa | 1106.39
8301 kPa | 1107.38
8342.7 kPa | 1108.09
8385.4 kPa | 1108.93
8428.9 kPa | 1109.88
8510.3 kPa | 1111.46
8552.8 kPa | 1112.27
8592.9 kPa | 1113.04
8634.2 kPa | 1113.83
8675.9 kPa | 1114.7
8717.3 kPa | 1115.43
8760 kPa | 1116.3
8843.1 kPa | 1117.91
8884.8 kPa | 1118.68
8926.5 kPa | 1119.39
8969.2 kPa | 1120.21
9010.2 kPa | 1120.94
9055 kPa | 1121.82
9096.9 kPa | 1122.57
9138.6 kPa | 1123.29
9223.4 kPa | 1124.87
9264.9 kPa | 1125.67
9307.3 kPa | 1126.46
9350.7 kPa | 1127.19
9393 kPa | 1127.83
9476.5 kPa | 1129.45
9518.3 kPa | 1130.09
9558.9 kPa | 1130.8
9598.9 kPa | 1131.49
9640.9 kPa | 1132.16
9683.8 kPa | 1132.95
9726.5 kPa | 1133.66
9769.9 kPa | 1134.38
9810.5 kPa | 1135.04
